Paper PMC8268238, “Seleno-Functionalization of Quercetin Improves the Non-Covalent Inhibition of M^pro and Its Antiviral Activity in Cells against SARS-CoV-2” (International Journal of Molecular Sciences, 2021)
Like-named read-outs stand apart in the source and are kept apart here.

Experiments:
SARS-CoV-2 M^pro = SARS-CoV-2 M^pro (Severe acute respiratory syndrome coronavirus 2, UniProt P0DTD1); experiment: SARS-CoV-2 M^pro inhibition assay (FRET substrate); format: biochemical; details: for IC50 / Ki: 0.2 μM enzyme, 20 μM substrate, pH 7, DMSO 2.5%; for IC50: equivalent to Ki^app; for Ki: intrinsic inhibition constant; for anti-M^pro inhibitory activity (in words): first-line screening at 100 μM
Description: A continuous assay based on Förster resonance energy transfer (FRET) to measure in vitro the catalytic activity of M^pro was implemented by using the substrate (Dabcyl)KTSAVLQSGFRKME(Edans)-NH2 (Biosyntan GmbH, Berlin, Germany) The enzymatic reaction was initiated by adding substrate at 20 μM (final concentration) to the enzyme at 0.2 μM (final concentration) in a final volume of 100 μL. The reaction buffer was sodium phosphate 50 mM, pH 7, NaCl 150 mM, and DMSO 2.5%. Fluorescence emission was measured in a FluoDia T70 microplate reader (Photon Technology International, Birmingham, NJ, USA) for 20 min (excitation wavelength, 380 nm; emission wavelength, 500 nm). The initial slope of the time evolution curve of the fluorescence emission signal provided a direct quantification of the enzymatic activity.
The in vitro inhibition potency of the compounds against M^pro was assessed through the estimation of the inhibition constant, Ki, and the half-maximal inhibitory concentration, IC50, from experimental inhibition curves. Inhibition curves were obtained by measuring the enzyme activity (at fixed 0.2 μM enzyme concentration and fixed 20 μM substrate concentration) as a function of compound concentration (serial 2-fold dilution from 125 µM to 0 μM), maintaining the percentage of DMSO (2.5%) constant. The enzymatic activity was quantitated as the initial slope of the substrate fluorescence emission time evolution curve, and was plotted as a function of compound concentration. The ratio between the activity (slope) in the presence and absence of the compound provides the residual percentage of activity at a given compound concentration. Nonlinear regression analysis employing a simple inhibition model (considering inhibitor depletion due to enzyme binding) allowed us to estimate the apparent inhibition constant, Ki^app, for each compound according to Equation (1):(1) [EI]=1/2([I]T+[E]T+Kiapp−([I]T+[E]T+Kiapp)^2−4[E]T[I]T)[I]=[I]T−[EI]=1/2([I]T−[E]T−Kiapp+([I]T+[E]T+Kiapp)^2−4[E]T[I]T)v([I])/v([I]=0)=1−[EI]/[E]T=1/1+[I]/Kiapp, where [EI] is the concentration of the enzyme–inhibitor complex, [E]T and [I]T are the total concentrations of the enzyme and the inhibitor, Ki^app is the apparent inhibition constant for the inhibitors (quercetin and derivatives), [I] is the concentration of the free inhibitor, and v is the initial slope of the enzymatic activity trace at a given (free) inhibitor concentration [I] (or total inhibitor concentration [I]T). No approximation for the free inhibitor concentration (e.g., assuming to be equal to the total inhibitor concentration) was made, thus having general validity for any total enzyme and inhibitor concentration and any value of the inhibition constant (even for tight-binding inhibitors). In addition, if the inhibitor acts through a purely competitive mechanism, the previous equation can be substituted by Equation (2):(2) v([I])/v([I]=0)=1/1+[I]/Kiapp=1/1+[I]/Ki(1+[S]/Km), where Ki is the intrinsic (i.e., substrate concentration-independent) inhibition constant, Km is the Michaelis–Menten constant for the enzyme–substrate interaction, and [S] is the substrate concentration. Because Km and [S] are known, the intrinsic inhibition constant can be determined. Furthermore, approximating the free compound concentration by the total compound concentration and neglecting ligand depletion, the Ki^app in Equation (2) is equivalent to the IC50, as reported in Table 3. However, it should be emphasized that the IC50 is an assay-dependent inhibition potency index (among other parameters, it depends on the enzyme and substrate concentrations, as well as on the Km); thus, the intrinsic inhibition constant is a better inhibition potency index. Uncertainties have been reported as 95% profile likelihood asymmetric confidence intervals, as especially recommended for equilibrium constants (i.e., binding association/dissociation constants and inhibition constants).

SARS-CoV-2 = details: for Inhibition of the virus-caused cytopathic effect (CPE): 2 days

Structure (SMILES)	melting point [°C]	IC50 (SARS-CoV-2 M^pro) [µM]	Ki (SARS-CoV-2 M^pro) [µM]	also measured
Cc1cc(C)c([Se]CCOc2cc(O)c3c(=O)cc(-c4ccccc4)oc3c2)c(C)c1	135.7 to 138.4			
Cc1ccccc1[Se]CCOc1cc(O)c2c(=O)cc(-c3ccccc3)oc2c1	123.9 to 127.4			
O=c1cc(-c2ccccc2)oc2cc(OCC[Se]c3ccc(F)cc3)cc(O)c12	171.1 to 173.7			
O=c1cc(-c2ccccc2)oc2cc(OCC[Se]c3cccc(C(F)(F)F)c3)cc(O)c12	154.1 to 157.7			
COc1ccccc1[Se]CCOc1cc(O)c2c(=O)cc(-c3ccccc3)oc2c1	132.9 to 135.6			
O=c1cc(-c2ccccc2)oc2cc(OCC[Se]Cc3ccccc3)cc(O)c12	115.4 to 118.2			
CCCCCCCCCC[Se]c1c(O)cc(O)c2c(=O)c(O)c(-c3ccc(O)c(O)c3)oc12 [2b, 2-(3,4-Dihydroxyphenyl)-3,5,7-trihydroxy-8-(decylselenyl)-4H-chromen-4-one]	155 to 159	> 100	> 100	anti-M^pro inhibitory activity (in words) (SARS-CoV-2 M^pro): devoid of any noticeable anti-M^pro inhibitory activity
CCCC[Se]c1c(O)cc(O)c2c(=O)c(O)c(-c3ccc(O)c(O)c3)oc12 [2c, 2-(3,4-Dihydroxyphenyl)-3,5,7-trihydroxy-8-(butylselenyl)-4H-chromen-4-one]	159 to 163	24	8.6	
COc1ccc([Se]c2c(O)cc(O)c3c(=O)c(O)c(-c4ccc(O)c(O)c4)oc23)cc1 [2e, 2-(3,4-Dihydroxyphenyl)-3,5,7-trihydroxy-8-((4-methoxyphenyl)selanyl)-4H-chromen-4-one]	194 to 197	3	1.1	Inhibition of the virus-caused cytopathic effect (CPE) (SARS-CoV-2; 10 µM, Vero cells): -; Inhibition of the virus-caused cytopathic effect (CPE) (SARS-CoV-2; 25 µM, Vero cells): -; Inhibition of the virus-caused cytopathic effect (CPE) (SARS-CoV-2; 50 µM, Vero cells): tox/-; Inhibition of the virus-caused cytopathic effect (CPE) (SARS-CoV-2; 75 µM, Vero cells): tox; Inhibition of the virus-caused cytopathic effect (CPE) (SARS-CoV-2; 100 µM, Vero cells): tox
O=c1cc(-c2ccccc2)oc2cc(OCC[Se]c3ccccc3)cc(O)c12 [7a, 5-Hydroxy-2-phenyl-7-(2-(phenylselanyl)ethoxy)-4H-chromen-4-one]	155 to 156	> 100	> 100	
O=c1c(O)c(-c2ccc(O)c(O)c2)oc2c([Se]c3ccccc3)c(O)c([Se]c3ccccc3)c(O)c12 [compound 3, 2-(3,4-Dihydroxyphenyl)-3,5,7-trihydroxy-6,8-bis(phenylselanyl)-4H-chromen-4-one]	206 to 210	13	4.6	Inhibition of the virus-caused cytopathic effect (CPE) (SARS-CoV-2; 10 µM, Vero cells): -; Inhibition of the virus-caused cytopathic effect (CPE) (SARS-CoV-2; 25 µM, Vero cells): -; Inhibition of the virus-caused cytopathic effect (CPE) (SARS-CoV-2; 50 µM, Vero cells): tox/-; Inhibition of the virus-caused cytopathic effect (CPE) (SARS-CoV-2; 75 µM, Vero cells): tox; Inhibition of the virus-caused cytopathic effect (CPE) (SARS-CoV-2; 100 µM, Vero cells): tox
O=c1cc(-c2ccccc2)oc2c([Se]c3ccccc3)c(O)c([Se]c3ccccc3)c(O)c12 [compound 6, 5,7-Dihydroxy-2-phenyl-6,8-bis(phenylselanyl)-4H-chromen-4-one]	188.7 to 190.6	> 100	> 100	anti-M^pro inhibitory activity (in words) (SARS-CoV-2 M^pro): devoid of any noticeable anti-M^pro inhibitory activity
O=c1cc(-c2ccccc2)oc2cc(OCC[Te]c3ccccc3)cc(O)c12 [compound 8, 5-Hydroxy-2-phenyl-7-[2-(phenyltellanyl)ethoxy]-4H-chromen-4-one]	128 to 129	3.3	1.1	Inhibition of the virus-caused cytopathic effect (CPE) (SARS-CoV-2; 75 µM, Vero cells): prec/tox; Inhibition of the virus-caused cytopathic effect (CPE) (SARS-CoV-2; 100 µM, Vero cells): prec/tox; toxicity in the cellular infection model (in words) (SARS-CoV-2; Vero cells, 100-10 µM): toxic; precipitation in the medium (in words) (SARS-CoV-2; culture medium, 100-10 µM): precipitated; SARS-CoV-2-related CPE reduction (in words) (SARS-CoV-2; tested at 100, 75, 50, 25 and 10 µM, judged at non-toxic concentrations): No CPE reduction
